Laboratory results: EP0423247B1, “COUMAMIDINE COMPOUNDS” (ABBOTT LABORATORIES, priority 1988, dated 1990)
Values after ≈ are worked out from the molar mass of the structure shown.

How the values were obtained:
[1] = test system: Klebsiella pneumoniae ATCC 8045; test: MIC, agar dilution method (Brain Heart Infusion agar); format: cell-based; conditions: ATCC8045, Klebsiella pneumoniae ATCC 8045, grown aerobically, BHI agar, read-out: Minimum inhibitory concentrations
Experimental: (§1) Minimum inhibitory concentration (MIC) was determined by the agar dilution method, described hereinbelow, using Brain Heart Infusion agar.
(§2) Twelve petri dishes were prepared, each containing successive aqueous 2-fold dilutions of the test compounds mixed with 10 mL of sterilized Brain Heart Infusion (BHI) agar.
(§3) The MIC was defined as the lowest concentration of test compound yielding no growth, a slight haze, or sparsely isolated colonies on the inoculum spot as compared to the growth control containing no test compound.

[2] = test system: Pseudomonas aeruginosa CFS 387C; test: as above; format: cell-based; conditions: CFS387C, grown aerobically, BHI agar, read-out: Minimum inhibitory concentrations
Experimental: as §1, §2, §3

[3] = test system: Enterobacter cloacae CMX 650A; test: as above; format: cell-based; conditions: CMX650A, grown aerobically, BHI agar, read-out: Minimum inhibitory concentrations
Experimental: as §1, §2, §3

[4] = test system: Actinetobacter SP CMX 669; test: as above; format: cell-based; conditions: Actinetobacter SP CMX 669, grown aerobically, BHI agar, read-out: Minimum inhibitory concentrations
Experimental: as §1, §2, §3

[5] = test system: Staphylococcus epidermidis 3519; test: as above; format: cell-based; conditions: Staphylococcus epidermidis 3519, grown aerobically, BHI agar, read-out: Minimum inhibitory concentrations
Experimental: as §1, §2, §3

[6] = test system: Pseudomonas aeruginosa CFS 389; test: as above; format: cell-based; conditions: CFS389, Pseudomonas aeruginosa CFS 389, grown aerobically, BHI agar, read-out: Minimum inhibitory concentrations
Experimental: as §1, §2, §3

[7] = test system: Streptococcus pyogenes EES 614; test: as above; format: cell-based; conditions: EES614, Streptococcus pyogenes EES 614, grown aerobically, BHI agar, read-out: Minimum inhibitory concentrations
Experimental: as §1, §2, §3

[8] = test system: Pseudomonas aeruginosa ATCC 27853; test: as above; format: cell-based; conditions: ATCC27853, Pseudomonas aeruginosa ATCC 27853, grown aerobically, BHI agar, read-out: Minimum inhibitory concentrations
Experimental: as §1, §2, §3

[9] = test system: Neisseria gonorrhoeae CMX 591; test: as above; format: cell-based; conditions: CMX591, Neisseria gonorrhoeae CMX 591, grown aerobically, BHI agar, read-out: Minimum inhibitory concentrations
Experimental: as §1, §2, §3

[10] = test system: Pseudomonas aeruginosa BMH 10; test: as above; format: cell-based; conditions: BMH10, Pseudomonas aeruginosa BMH 10, grown aerobically, BHI agar, read-out: Minimum inhibitory concentrations
Experimental: as §1, §2, §3

[11] = test system: Serratia marcescens CMX 740C; test: as above; format: cell-based; conditions: CMX740C, grown aerobically, BHI agar, read-out: Minimum inhibitory concentrations
Experimental: as §1, §2, §3

[12] = test system: Pseudomonas aeruginosa K799/WT; test: as above; format: cell-based; conditions: grown aerobically, BHI agar, read-out: Minimum inhibitory concentrations
Experimental: as §1, §2, §3

Staphylococcus aureus 45 = test: as above; format: cell-based; conditions: Staphylococcus aureus 45, grown aerobically, BHI agar, read-out: Minimum inhibitory concentrations
Experimental: as §1, §2, §3

[13] = test system: Enterobacter aerogenes ATCC 13048; test: as above; format: cell-based; conditions: Klebsiella aerogenes, ATCC13048, Enterobacter aerogenes ATCC 13048, grown aerobically, BHI agar, read-out: Minimum inhibitory concentrations
Experimental: as §1, §2, §3

[14] = test system: Proteus vulgaris ABBOTT JJ; test: as above; format: cell-based; conditions: grown aerobically, BHI agar, read-out: Minimum inhibitory concentrations
Experimental: as §1, §2, §3

[15] = test system: Staphylococcus aureus A5177; test: as above; format: cell-based; conditions: Staphylococcus aureus A5177, grown aerobically, BHI agar, read-out: Minimum inhibitory concentrations
Experimental: as §1, §2, §3

[16] = test system: Streptococcus bovis A 5169; test: as above; format: cell-based; conditions: Streptococcus equinus, A5169, Streptococcus bovis A 5169, grown aerobically, BHI agar, read-out: Minimum inhibitory concentrations
Experimental: as §1, §2, §3

[17] = test system: Streptococcus agalactiae CMX 508; test: as above; format: cell-based; conditions: CMX508, Streptococcus agalactiae CMX 508, grown aerobically, BHI agar, read-out: Minimum inhibitory concentrations
Experimental: as §1, §2, §3

[18] = test system: Providencia stuartii CMX 640; test: as above; format: cell-based; conditions: CMX640, Providencia stuartii CMX 640, grown aerobically, BHI agar, read-out: Minimum inhibitory concentrations
Experimental: as §1, §2, §3

[19] = test system: Pseudomonas aeruginosa A5007; test: as above; format: cell-based; conditions: Pseudomonas aeruginosa A5007, grown aerobically, BHI agar, read-out: Minimum inhibitory concentrations
Experimental: as §1, §2, §3

[20] = test system: Staphylococcus aureus CMX 686B; test: as above; format: cell-based; conditions: CMX686B, grown aerobically, BHI agar, read-out: Minimum inhibitory concentrations
Experimental: as §1, §2, §3

Escherichia coli SS = test: as above; format: cell-based; conditions: grown aerobically, BHI agar, read-out: Minimum inhibitory concentrations
Experimental: as §1, §2, §3

[21] = test system: Proteus mirabilis CMX 704F; test: as above; format: cell-based; conditions: CMX704F, grown aerobically, BHI agar, read-out: Minimum inhibitory concentrations
Experimental: as §1, §2, §3

[22] = test system: Staphylococcus aureus ATCC 6538P; test: as above; format: cell-based; conditions: ATCC6538P, grown aerobically, BHI agar, read-out: Minimum inhibitory concentrations
Experimental: as §1, §2, §3

[23] = test system: Neisseria gonorrhoeae 35FAMPI; test: as above; format: cell-based; conditions: grown aerobically, BHI agar, read-out: Minimum inhibitory concentrations
Experimental: as §1, §2, §3

[24] = test system: Enterococcus faecium ATCC 8043; test: as above; format: cell-based; conditions: ATCC8043, Enterococcus faecium ATCC 8043, grown aerobically, BHI agar, read-out: Minimum inhibitory concentrations
Experimental: as §1, §2, §3

[25] = test system: Streptococcus pyogenes 930 CONST; test: as above; format: cell-based; conditions: grown aerobically, BHI agar, read-out: Minimum inhibitory concentrations
Experimental: as §1, §2, §3

[26] = test system: Serratia marcescens CMX 657E; test: as above; format: cell-based; conditions: CMX657E, grown aerobically, BHI agar, read-out: Minimum inhibitory concentrations
Experimental: as §1, §2, §3

Escherichia coli JUHL = test: as above; format: cell-based; conditions: grown aerobically, BHI agar, read-out: Minimum inhibitory concentrations
Experimental: as §1, §2, §3

[27] = test system: Haemophilus influenzae 503B; test: as above; format: cell-based; conditions: grown aerobically, BHI agar, read-out: Minimum inhibitory concentrations
Experimental: as §1, §2, §3

[28] = test system: Campylobacter jejuni ATTC 29428; test: as above; format: cell-based; conditions: ATTC29428, Campylobacter jejuni ATTC 29428, grown aerobically, BHI agar, read-out: Minimum inhibitory concentrations
Experimental: as §1, §2, §3

Pseudomonas cepacia 296I = test: as above; format: cell-based; conditions: Burkholderia cepacia, grown aerobically, BHI agar, read-out: Minimum inhibitory concentrations
Experimental: as §1, §2, §3

[29] = Solubility (qualitative description); format: physicochemical
Source text: High resolution, positive ion fast atom bombardment (FAB) mass spectrometry established identical molecular ions or m/z 835.3576 for the two isomers corresponding to a formula of C₃₃H₄₉N₁₃0₁₃ (calc. 835.3577). UV lambdamax=286 nm. The coumamidine gamma 1 isomer has an imidazolidone ring at the 2 and 3 position of the terminal sugar, and the coumamidine gamma 2 isomer has an oxazolidone ring at positions 3 and 4 of the terminal sugar.

CC1OC(Oc2ccc(C=CC(=O)NCCC(=N)N)cc2)C(NC(=N)N)C(O)C1NC(=O)NC1OCC(OC2OCC(O)C3NC(=O)N(C(N)=O)C23)C(O)C1NC(N)=O (stereo not drawn) [gamma 1, coumamidine gamma 1]
MIC [1]: 0.25 µg/mL (≈ 0.299 µM)
MIC [2]: 8 µg/mL (≈ 9.57 µM)
MIC [3]: 4 µg/mL (≈ 4.79 µM)
MIC [4]: 0.25 µg/mL (≈ 0.299 µM)
MIC [5]: 0.5 µg/mL (≈ 0.598 µM)
MIC [6]: 8 µg/mL (≈ 9.57 µM)
MIC [7]: 4 µg/mL (≈ 4.79 µM)
MIC [8]: 8 µg/mL (≈ 9.57 µM)
MIC [9]: 0.5 µg/mL (≈ 0.598 µM)
MIC [10]: 0.25 µg/mL (≈ 0.299 µM)
MIC [11]: 2 µg/mL (≈ 2.39 µM)
MIC [12]: 8 µg/mL (≈ 9.57 µM)
MIC (Staphylococcus aureus 45): 0.5 µg/mL (≈ 0.598 µM)
MIC [13]: 1 µg/mL (≈ 1.2 µM)
MIC [14]: 2 µg/mL (≈ 2.39 µM)
MIC [15]: 1 µg/mL (≈ 1.2 µM)
MIC [16]: 16 µg/mL (≈ 19.1 µM)
MIC [17]: 8 µg/mL (≈ 9.57 µM)
MIC [18]: 0.5 µg/mL (≈ 0.598 µM)
MIC [19]: 8 µg/mL (≈ 9.57 µM)
MIC [20]: 0.25 µg/mL (≈ 0.299 µM)
MIC (Escherichia coli SS): 0.5 µg/mL (≈ 0.598 µM)
MIC [21]: 1 µg/mL (≈ 1.2 µM)
MIC [22]: 0.25 µg/mL (≈ 0.299 µM)
MIC [23]: 0.5 µg/mL (≈ 0.598 µM)
MIC [24]: 16 µg/mL (≈ 19.1 µM)
MIC [25]: 2 µg/mL (≈ 2.39 µM)
MIC [26]: 1 µg/mL (≈ 1.2 µM)
MIC (Escherichia coli JUHL): 0.25 µg/mL (≈ 0.299 µM)
MIC [27]: 0.03 µg/mL (≈ 0.0359 µM)
MIC [28]: 0.06 µg/mL (≈ 0.0718 µM)
MIC (Pseudomonas cepacia 296I): 32 µg/mL (≈ 38.3 µM)
solubility in dimethylsulfoxide [29]: readily soluble
solubility in methanol [29]: slightly soluble
solubility in water [29]: readily soluble

CC1OC(Oc2ccc(C=CC(=O)NCCC(=N)N)cc2)C(NC(=N)N)C(O)C1NC(=O)NC1OCC(OC2OCC3OC(=O)NC3C2NC(N)=O)C(O)C1NC(N)=O (stereo not drawn) [gamma 2, coumamidine gamma 2]
MIC [1]: 0.5 µg/mL (≈ 0.598 µM)
MIC [2]: 16 µg/mL (≈ 19.1 µM)
MIC [3]: 4 µg/mL (≈ 4.79 µM)
MIC [4]: 4 µg/mL (≈ 4.79 µM)
MIC [5]: 1 µg/mL (≈ 1.2 µM)
MIC [6]: 8 µg/mL (≈ 9.57 µM)
MIC [7]: 1 µg/mL (≈ 1.2 µM)
MIC [8]: 8 µg/mL (≈ 9.57 µM)
MIC [10]: 0.5 µg/mL (≈ 0.598 µM)
MIC [11]: 2 µg/mL (≈ 2.39 µM)
MIC [12]: 16 µg/mL (≈ 19.1 µM)
MIC (Staphylococcus aureus 45): 1 µg/mL (≈ 1.2 µM)
MIC [13]: 2 µg/mL (≈ 2.39 µM)
MIC [14]: 4 µg/mL (≈ 4.79 µM)
MIC [15]: 1 µg/mL (≈ 1.2 µM)
MIC [16]: 32 µg/mL (≈ 38.3 µM)
MIC [17]: 16 µg/mL (≈ 19.1 µM)
MIC [18]: 2 µg/mL (≈ 2.39 µM)
MIC [19]: 16 µg/mL (≈ 19.1 µM)
MIC [20]: 0.5 µg/mL (≈ 0.598 µM)
MIC (Escherichia coli SS): 1 µg/mL (≈ 1.2 µM)
MIC [21]: 1 µg/mL (≈ 1.2 µM)
MIC [22]: 0.5 µg/mL (≈ 0.598 µM)
MIC [24]: 32 µg/mL (≈ 38.3 µM)
MIC [25]: 1 µg/mL (≈ 1.2 µM)
MIC [26]: 2 µg/mL (≈ 2.39 µM)
MIC (Escherichia coli JUHL): 0.5 µg/mL (≈ 0.598 µM)
MIC (Pseudomonas cepacia 296I): > 32 µg/mL
solubility in dimethylsulfoxide [29]: readily soluble
solubility in methanol [29]: slightly soluble
solubility in water [29]: readily soluble
